Results on 22 compounds are retold here after publication PMC5298233, “Substrate-analogous inhibitors exert antimalarial action by targeting the Plasmodium lactate transporter PfFNT at nanomolar scale” (PLoS Pathogens, 2017).

One may read the Ki as a dissociation constant, usually derived from enzyme kinetics or from competition with a known ligand. In general, Km refers to the substrate concentration at which the rate is half of its maximum.

One test concerns P. falciparum 3D7. As to the kind of experiment: Viability of cultured P. falciparum parasites (FACS parasitemia). The format is cell-based, Plasmodium falciparum. The conditions noted are these: for IC50: Plasmodium falciparum, 3D7, 48 h, read-out: IC50 (P. falciparum 3D7).
Test [1] has as its target T1, PfFNT (Plasmodium falciparum, UniProt O77389). As to the kind of experiment: cell-based.
The subject of test [2] is MMV007839 resistant 3D7 parasites. In words: microbe, parasite or virus in culture. It is filed as cell-based, Plasmodium falciparum. The note with it: for IC50: Plasmodium falciparum, 3D7, read-out: IC50 (P. falciparum resist.).
Test [3] concerns the target T1, PfFNT. In words: cell-based. The conditions noted are these: for hit identification: inhibition of PfFNT transport at 10 μM: 1 mM substrate gradient, compound added 20 min prior; for inhibition at 10 µM: read-out: % Inhib.
Another test deals with T2, rat MCT1 (Rattus norvegicus, UniProt P53987).
T2 sequence (P53987 1-494): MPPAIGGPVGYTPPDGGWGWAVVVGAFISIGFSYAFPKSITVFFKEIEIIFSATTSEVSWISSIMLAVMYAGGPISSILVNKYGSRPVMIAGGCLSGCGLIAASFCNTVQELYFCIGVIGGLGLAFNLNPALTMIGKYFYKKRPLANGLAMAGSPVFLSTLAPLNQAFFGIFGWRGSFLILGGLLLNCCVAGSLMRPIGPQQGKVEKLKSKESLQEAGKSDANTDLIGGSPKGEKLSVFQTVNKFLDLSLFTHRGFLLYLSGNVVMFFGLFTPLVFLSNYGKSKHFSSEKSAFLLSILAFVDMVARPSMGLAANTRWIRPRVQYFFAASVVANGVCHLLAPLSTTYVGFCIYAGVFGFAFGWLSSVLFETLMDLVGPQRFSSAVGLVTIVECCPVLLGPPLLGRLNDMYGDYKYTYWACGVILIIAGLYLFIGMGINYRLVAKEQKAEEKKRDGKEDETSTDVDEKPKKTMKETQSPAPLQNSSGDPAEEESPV
In words: L-lactate transport inhibition of MCT1 expressed in yeast. It is filed as cell-based.

The target in the next test is T3, BbFNT (Babesia bovis, UniProt A7AX62).
T3 sequence (A7AX62 1-279): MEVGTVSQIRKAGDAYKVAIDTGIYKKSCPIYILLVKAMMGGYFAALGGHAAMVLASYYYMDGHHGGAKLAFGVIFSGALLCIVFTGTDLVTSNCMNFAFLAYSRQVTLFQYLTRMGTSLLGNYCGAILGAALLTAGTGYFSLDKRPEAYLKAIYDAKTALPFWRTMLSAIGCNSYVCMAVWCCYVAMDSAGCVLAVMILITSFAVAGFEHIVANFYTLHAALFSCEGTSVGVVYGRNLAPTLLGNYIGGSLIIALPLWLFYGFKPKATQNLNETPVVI
As to the kind of experiment: cell-based. The conditions noted are these: wildtype BbFNT; read-out: IC50 (BbFNT / yeast).

A further test concerns the target T4, BbFNT S93G (Babesia bovis, UniProt A7AX62, S93G).
T4 sequence (A7AX62 1-279 S93G): T3 sequence (A7AX62 1-279)
As to the kind of experiment: cell-based. The note with it: read-out: IC50 (BbFNT S93G / yeast).

The target of test [4] is T1, PfFNT. The conditions noted are these: earlier determined; read-out: affinity of lactate to PfFNT (Km); cited from earlier work.
Test [5] deals with T1, PfFNT. The note with it: read-out: IC50 on PfFNT; cited from earlier work.
Setting [6] is: IC50 (PfFNT / yeast), 20 min incubation with compound, 1 mM L-lactate.
Setting [7] is: IC50 (PfFNT / yeast), half-maximal lactate transport rate, 20 min treatment.

Read-outs that look alike come from different tables or passages of the source.

T1 sequence (O77389 whole entry): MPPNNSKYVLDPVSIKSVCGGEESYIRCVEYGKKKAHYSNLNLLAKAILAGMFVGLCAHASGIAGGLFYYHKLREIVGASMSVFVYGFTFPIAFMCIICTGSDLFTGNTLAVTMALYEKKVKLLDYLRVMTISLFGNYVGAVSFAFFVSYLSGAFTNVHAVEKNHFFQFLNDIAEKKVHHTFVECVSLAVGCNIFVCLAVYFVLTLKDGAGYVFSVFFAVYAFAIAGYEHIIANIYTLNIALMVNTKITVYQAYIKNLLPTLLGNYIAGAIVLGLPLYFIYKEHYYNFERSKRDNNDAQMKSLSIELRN

Regarding `CCO/C(=C\C(=O)c1ccc(OC)cc1)C(F)(F)C(F)(F)F` [BH-296 ethyl ester prodrug], the IC50 in the test on P. falciparum 3D7 was determined as 9.3 ± 1.4 µM.

With `COc1ccc(C(=O)/C=C(\O)C(F)(F)C(F)(F)F)cc1` [BH-296], the IC50 came out at 0.14 ± 0.01 µM at PfFNT [1] (setting [6]), 3.6 ± 0.2 µM with P. falciparum 3D7 and 8.6 µM in [2]. The “less efficient in P. falciparum culture” value in the test on P. falciparum 3D7 (compared with PfFNT block in yeast / MMV007839) stood at 25 times. Also, the “shift in IC50, resistant versus non-resistant parental parasites” value in test [2] was determined as 2.5 fold.

At PfFNT [1] (setting [7]), `O=C1CC(O)(C(F)(F)C(F)(F)F)Oc2ccccc21` (stereo not drawn) [MMV000972] came in with an IC50 of 0.17 µM. Further, the IC50 in the test on P. falciparum 3D7 worked out at 1.7 µM. For the same compound, at PfFNT [3], the “hit identification: inhibition of PfFNT transport at 10 μM” value was “fully blocked” and the inhibition at 10 µM came out at 102%.

Regarding `COc1ccc2c(c1)OC(O)(C(F)(F)C(F)(F)F)CC2=O` (stereo not drawn) [MMV007839], the Ki on PfFNT [1] came to 1.4 µM. The IC50 came out at 0.17 µM against PfFNT [1] (setting [7]); 0.015 µM at PfFNT [1] (IC50 (PfFNT / yeast; 24 h treatment), compound added 24 h before the assay, last 18 h at 4°C); 55 µM against rat MCT1; 35 µM in test [2]; 150 µM at BbFNT; 11 µM on BbFNT S93G. Further, the “higher affinity than the physiological substrate lactate” value on PfFNT [1] (Ki versus lactate Km) is > 60,000 times. The “re-gain of PfFNT transport activity after removal of inhibitor (dissociation)” value at PfFNT [1] (full and half-maximal inhibition, wash-out, up to 2 h) is “does not re-gain activity within 2 h”. The “reduction of parasite growth” value in the test on P. falciparum 3D7 (incubation at IC90 over night) is recorded as 70%; with P. falciparum 3D7 (short period incubation at IC90 for 1 h), 17%. Moreover, the “hit identification: inhibition of PfFNT transport at 10 μM” value at PfFNT [3] is on record as “fully blocked”. Further, the inhibition at 10 µM at PfFNT [3] was 99.1%.

Regarding `CC(=O)C=C(O)C(F)(F)C(F)(F)F` [Pharmacophore, 5,5,6,6,6-pentafluoro-4-hydroxyhex-3-en-2-one], at PfFNT [1] (setting [6]), the IC50 was 1.9 µM.

On to `COc1ccc2c(=O)cc(C(F)(F)C(F)(F)F)oc2c1` [[1]], for which, on PfFNT [1] (setting [6]), the IC50 was above 1000 µM.

With `COc1ccc2c(c1)OC(C)(C)CC2=O` [[2]], at PfFNT [1] (setting [6]), the IC50 was above 1000 µM.

With `O=C1CC(O)(C(F)(F)C(F)F)Oc2ccc(Cl)cc21` (stereo not drawn) [[3]], the IC50 at PfFNT [1] (setting [6]) was 48 ± 2 µM.

For `COc1ccc2c(c1)C(=O)CC(O)(C(F)F)O2` (stereo not drawn) [[4]], the IC50 at PfFNT [1] (setting [6]) was above 1000 µM.

Take `COc1ccc2c(c1)OC(O)(C(F)(F)C(F)(F)F)C(C)C2=O` (stereo not drawn) [[5]]: the IC50 at PfFNT [1] (setting [6]) was 145 ± 8 µM.

For the compound `O/N=C1\CC(O)(C(F)(F)F)Oc2ccc(Cl)cc21` (stereo not drawn) [[6]], the IC50 at PfFNT [1] (setting [6]) worked out at 315 ± 63 µM.

Consider `O=C1CC(O)(C(F)F)Oc2ccccc21` (stereo not drawn) [[7]], for which the IC50 at PfFNT [1] (setting [6]) was 280 ± 32 µM.

With `COc1ccc2c(c1)OC(O)(C(F)(F)F)CC2=O` (stereo not drawn) [[8]], the IC50 on PfFNT [1] (setting [6]) amounted to 1.1 ± 0.1 µM.

Turning to `COc1ccc2c(c1)OC(O)(C(F)(F)C(F)F)CC2=O` (stereo not drawn) [[9]], the IC50 at PfFNT [1] (setting [6]) came out at 0.36 ± 0.4 µM.

Take `COc1ccc2c(c1)OC(O)(C(F)(F)C(F)(F)C(F)(F)F)CC2=O` (stereo not drawn) [[10]]: the IC50 at PfFNT [1] (setting [6]) was 0.25 ± 0.02 µM; with P. falciparum 3D7 it was 0.47 ± 0.1 µM.

Regarding `O=C1CC(O)(C(F)(F)C(F)(F)C(F)(F)C(F)(F)F)Oc2ccccc21` (stereo not drawn) [[11]], at PfFNT [1] (setting [6]), the IC50 was determined as 4.9 ± 0.2 µM.

`O=C1CC(O)(C(F)(F)C(F)(F)F)Oc2cc(Cl)ccc21` (stereo not drawn) [[12]]: the IC50 on PfFNT [1] (setting [6]) is 0.12 ± 0.01 µM; with P. falciparum 3D7, 0.28 ± 0.05 µM.

With `CCOc1ccc2c(c1)OC(O)(C(F)(F)C(F)(F)F)CC2=O` (stereo not drawn) [[13]], the figures for the IC50 at PfFNT [1] (setting [6]) and in the test on P. falciparum 3D7 were 0.24 ± 0.01 µM and 0.05 µM, respectively.

Turning to `CC(C)Oc1ccc2c(c1)OC(O)(C(F)(F)C(F)(F)F)CC2=O` (stereo not drawn) [[14]], the IC50 on PfFNT [1] (setting [6]) came out at 0.4 ± 0.01 µM; in the test on P. falciparum 3D7, 0.1 µM.

With `O=C1CC(O)(C(F)(F)C(F)(F)F)Oc2cc(OCc3ccccc3)ccc21` (stereo not drawn) [[15]], at PfFNT [1] (setting [6]), the IC50 was 0.88 ± 0.03 µM.

Consider `CC(O)C(=O)O` (stereo not drawn) [lactate], for which, on PfFNT [4], the Km is 87 mM.

As to `O=C(O)c1cccnc1Nc1cccc(C(F)(F)F)c1` [niflumic acid], the IC50 on PfFNT [5] is above 100 µM.
